Entries after “also recorded” stand apart in the source; their conditions may differ. Marks after values point to notes of the source that are not given here.
Assays:
[1] = tested on: "in vitro" rumen fluid culture; experiment: Biogas production in "in vitro" rumen fluid culture (pressure meter); type: cell-based, calves; parameters: Average biogas production / Cumulative biogas production / Biogas production: unit not given here; conditions: Exp 1; for Average biogas production: average over doses and incubation times
Method: (§1) Two trials following an identical experimental protocol were designed to study the effect of different pure flavonoids on rumen fermentation using a simulatory “in vitro” system based on the experimental protocol described by Theodorou M K et al. (1994) Animal Feed Science and Technology, 48 (3), p. 185-197; Mauricio, R. M., et al. (1999) Animal Feed Science and Technology 79, 321-330.
Gas production was determined from a semi-automatic pressure meter, the relationship between pressure levels and the produced gas volume was previously calculated.
(§2) Rumen cannulated calves which received a mixed ration mainly composed of concentrate (90:10) were used as rumen fluid donor; feed composition is presented in Table 1. The inoculum was collected and filtered through two-layer surgical gauze and kept in thermo pots. Flavonoids (Table 2) plus 600 mg of concentrate (Table 1) and 60 mg of barley straw as the substrate were dosed by triplicate in preheated bottles (39° C.) and maintained under anaerobic conditions. Flavonoids isonaringin, neoeritrocin, poncirin were purchased from INDOFINE Chemical Company, Inc (USA). 10 ml of rumen fluid and 40 ml of incubation medium were added to the bottles (McDougall, El (1948) Studies on ruminant saliva. 1. The composition and output of sheep's saliva. Biochem J. 43(1) 99-109). Once the bottles were filled and the anaerobic condition was applied, the bottles were sealed and the incubation process was started in a hot water bath. […] Each sample was incubated in triplicate in two sets or batches.

[2] = tested on: methanogenic (archea) populations; experiment: Methane production in "in vitro" rumen fluid culture; type: cell-based, calves; parameters: Average methane production / Accumulated methane production / Methane production / Cumulative methane production: unit not given here; conditions: Exp 1
Text: as §1, §2
The effects of flavonoids substances on fermentation activity of certain archea populations which are theoretically responsible for the methane production were analyzed.
The experimental design allows determining whether the effect of flavonoids on methane reduction was derived from a general reduction in microbial activity and biogas production or contrarily flavonoid affects specifically on methanogenic (archea) populations. The presence of flavonoids in the culture medium reduced methane contribution in the total biogas production (P<0.05) although, again, the aforementioned impact was heterogeneous.

[3] = tested on: "in vitro" ruminal fluid cultures; experiment: Volatile fatty acid concentration and molar proportions in "in vitro" ruminal fluid cultures; type: cell-based, calves; conditions: for % Acetate, molar ratio, average (μ) / % Butyrate, molar ratio, average (μ) / % Propionate, molar ratio, average (M) / VFA concentration, average (μ): average over incubation times
Text: as §1
(§3) Rumen cannulated calves which received a mixed ration mainly composed of concentrate (90:10) were used as rumen fluid donor; feed composition is presented in Table 1. The inoculum was collected and filtered through two-layer surgical gauze and kept in thermo pots. Flavonoids (Table 2) plus 600 mg of concentrate (Table 1) and 60 mg of barley straw as the substrate were dosed by triplicate in preheated bottles (39° C.) and maintained under anaerobic conditions. Flavonoids isonaringin, neoeritrocin, poncirin were purchased from INDOFINE Chemical Company, Inc (USA). 10 ml of rumen fluid and 40 ml of incubation medium were added to the bottles (McDougall, El (1948) Studies on ruminant saliva. 1. The composition and output of sheep's saliva. Biochem J. 43(1) 99-109). Once the bottles were filled and the anaerobic condition was applied, the bottles were sealed and the incubation process was started in a hot water bath. Pressure readings were made at 2, 4, 6, 8, 12, 24, 36 and 48 hours. Each sample was incubated in triplicate in two sets or batches.
[…] P., 1982 Science des Aliments 2, 131-144), lactate (Taylor, K. A. C. C., 1996. Appl. Biochem. Biotechnol. Enzym. Eng. Biotechnol. 56, 49-58) and ammonia (Chaney, A. L., Marbach, E. P., 1962. Clin. Chem. 8, 130-132) analyses.

[4] = tested on: "in vitro" ruminal fluid cultures; experiment: Ammonia (N-NH3) concentration in "in vitro" ruminal fluid cultures; type: cell-based, calves; conditions: for N-NH3 concentration, average (M): average over incubation times
Text: as §1, §3
(§4) After 12 hours of incubation, one bottle (replicate) from each treatment was opened, pH was recorded and the bottle was sampled for volatile fatty acids (Jouany, J. P., 1982 Science des Aliments 2, 131-144), lactate (Taylor, K. A. C. C., 1996. Appl. Biochem. Biotechnol. Enzym. Eng. Biotechnol. 56, 49-58) and ammonia (Chaney, A. L., Marbach, E. P., 1962. Clin. Chem. 8, 130-132) analyses.

[5] = tested on: "in vitro" ruminal fluid culture; experiment: Lactate concentration in "in vitro" ruminal fluid culture; type: cell-based, calves; conditions: 12 hours of incubation
Text: as §1, §3, §4

[6] = tested on: ruminal bacteria; experiment: Bacterial DNA concentration by qPCR; type: cell-based, calves; conditions: 12 hours of incubation
Method: as §3, §4
(§5) The environmental DNA was extracted using the technique proposed by Yu and Morrison (2004). Quantification of Streptococcus bovis, Megasphaera elsdenii and Selenomonas ruminantium DNA was done by qPCR using specific primers (Tajima, K. et al. 2001. Appl. Environ. Microb. 67, 2766-2774; Ouwerkerk, D., et al. 2002. J. Appl. Microbiol. 92, 753-758). Results were statistically analyzed using the PROC MIXED procedure of SAS statistical package (SAS, 2000, User's guide: Statistics, version 8 editions inst., Inc., Cary, N.C.). The least significant difference was used to compare the means. Differences between means in which P<0.05 were accepted as significant.

[7] = tested on: Streptococcus bovis; experiment: qPCR relative quantification of Streptococcus bovis; type: cell-based; conditions: 12 hours of incubation
Method: as §3, §4, §5

[8] = tested on: Selenomonas ruminantium; experiment: qPCR relative quantification of Selenomonas ruminantium; type: cell-based; conditions: 12 hours of incubation
Method: as §3, §4, §5

[9] = tested on: Megasphaera elsdenii; experiment: qPCR relative quantification of Megasphaera elsdenii; type: cell-based; conditions: 12 hours of incubation
Method: as §3, §4, §5

[10] = tested on: "in vitro" ruminal fluid cultures; experiment: Ammonia (N-NH3) concentration in "in vitro" ruminal fluid cultures; type: cell-based, calves; conditions: 72 h
[11] = average over doses and incubation times
[12] = average over doses and incubation times, listed as neoeriocitrin

## C[C@@H]1O[C@@H](O[C@H]2[C@H](Oc3cc(O)c4c(c3)O[C@H](c3ccc(O)cc3)CC4=O)O[C@H](CO)[C@@H](O)[C@@H]2O)[C@H](O)[C@H](O)[C@H]1O [Naringin, naringin]
[1]; 12 h incubation
  Cumulative biogas production: 193.90
[1]; 24 h incubation
  Cumulative biogas production: 236.91
[1]; 48 h incubation
  Cumulative biogas production: 270.98
[1]; 72 h incubation
  Cumulative biogas production: 290.91
[1]
  Average biogas production: 248.17^bc
[1]; listed as naringin
  Average biogas production: did not change
[1]; dose 1, 0.2 g/kg DM
  Biogas production: 251.15
[1]; dose 2, 0.5 g/kg DM
  Biogas production: 245.19
[2]; 12 h
  Accumulated methane production: 23.38
  Proportion of methane in the produced biogas: 12.04
[2]; 24 h
  Accumulated methane production: 29.46
  Proportion of methane in the produced biogas: 14.28
[2]; 48 h
  Accumulated methane production: 34.93
  Proportion of methane in the produced biogas: 16.14
[2]; 72 h
  Accumulated methane production: 38.24
  Proportion of methane in the produced biogas: 16.97
[2]; [11]
  Proportion of methane in the produced biogas: 14.86^b
[2]; average over doses and incubation times, listed as Naringina
  Average methane production: 31.50^b
[2]; average over doses and incubation times, listed as naringin
  Average methane production: not modified
[2]; dose 1, 0.2 g/kg DM
  Methane production: 32.28
  Proportion of methane in the produced biogas: 14.87
[2]; dose 2, 0.5 g/kg DM
  Methane production: 30.73
  Proportion of methane in the produced biogas: 14.85
[3]; 0 h
  % Acetate, molar ratio: 62.51 mol/100 mol
  % Butyrate, molar ratio: 9.07 mol/100 mol
  % Propionate, molar ratio: 20.03 mol/100 mol
  A/P rate (acetate/propionate): 3.12
[3]; 0 h (initial constant value)
  VFA concentration: 13.78 mmol/L
[3]; 12 h
  % Acetate, molar ratio: 53.70 mol/100 mol
  % Butyrate, molar ratio: 10.47 mol/100 mol
  % Propionate, molar ratio: 30.00 mol/100 mol
  A/P rate (acetate/propionate): 1.79
  VFA concentration: 35.23 mmol/L
[3]; 72 h
  % Acetate, molar ratio: 55.34 mol/100 mol
  % Butyrate, molar ratio: 10.33 mol/100 mol
  % Propionate, molar ratio: 26.75 mol/100 mol
  A/P rate (acetate/propionate): 2.07
  VFA concentration: 51.03 mmol/L
[3]
  % Acetate, molar ratio, average (μ): 57.18 mol/100 mol
  % Butyrate, molar ratio, average (μ): 9.96 ^ab mol/100 mol
  % Propionate, molar ratio, average (M): 25.59 ^b mol/100 mol
  VFA concentration, average (μ): 33.35 mmol/L
[3]; listed as naringin
  % Propionate, molar ratio, average (M): improved
[4]; 0 h (initial constant value)
  N-NH3 concentration: 149.99 mg/L
[4]; 12 h
  N-NH3 concentration: 172.47 mg/L
[4]
  N-NH3 concentration, average (M): 219.57 mg/L
[5]
  Lactate: 77.8 mg/L
[6]
  Bacteria DNA: 22.15 ^ab μg/ml
[7]
  Relative Quantification 2^(ΔΔCt) S. bovis: 0.48
[8]
  Relative Quantification 2^(ΔΔCt) S. ruminantium: 0.74
[9]
  Relative Quantification 2^(ΔΔCt) M. elsdenii: 1.26 ^c
[10]
  N-NH3 concentration: 336.25 mg/L

## C[C@@H]1O[C@@H](O[C@H]2[C@H](Oc3cc(O)c4c(c3)O[C@H](c3ccc(O)c(O)c3)CC4=O)O[C@H](CO)[C@@H](O)[C@@H]2O)[C@H](O)[C@H](O)[C@H]1O [Neoeriocitrin]
[1]; 12 h incubation
  Cumulative biogas production: 211.78
[1]; 24 h incubation
  Cumulative biogas production: 259.11
[1]; 48 h incubation
  Cumulative biogas production: 288.43
[1]; 72 h incubation
  Cumulative biogas production: 307.80
[1]; dose 1, 0.2 g/kg DM
  Biogas production: 277.08
[1]; dose 2, 0.5 g/kg DM
  Biogas production: 256.47
[2]; 500 vs. 200 mg/kg DM
  Dosage effect on methane proportion of biogas: tended to depress methane production
[2]; 12 h
  Accumulated methane production: 29.65
  Proportion of methane in the produced biogas: 14.00
[2]; 24 h
  Accumulated methane production: 37.03
  Proportion of methane in the produced biogas: 15.75
[2]; 48 h
  Accumulated methane production: 41.74
  Proportion of methane in the produced biogas: 16.33
[2]; 72 h
  Accumulated methane production: 45.18
  Proportion of methane in the produced biogas: 18.19
[2]; [11]
  Average methane production: 38.40^a
  Proportion of methane in the produced biogas: 16.07^a
[2]; [12]
  Average methane production: increased
  Proportion of methane in the produced biogas: significantly increased; also recorded: increased the methane proportion
[2]; dose 1, 0.2 g/kg DM
  Methane production: 39.51
  Proportion of methane in the produced biogas: 15.96
[2]; dose 2, 0.5 g/kg DM
  Methane production: 37.28
  Proportion of methane in the produced biogas: 16.17
[3]; 0 h
  % Acetate, molar ratio: 62.51 mol/100 mol
  % Butyrate, molar ratio: 9.07 mol/100 mol
  % Propionate, molar ratio: 20.03 mol/100 mol
  A/P rate (acetate/propionate): 3.12
[3]; 0 h (initial constant value)
  VFA concentration: 13.78 mmol/L
[3]; 12 h
  % Acetate, molar ratio: 55.73 mol/100 mol
  % Butyrate, molar ratio: 11.84 mol/100 mol
  % Propionate, molar ratio: 26.77 mol/100 mol
  A/P rate (acetate/propionate): 2.09
  VFA concentration: 39.75 mmol/L
[3]; 72 h
  % Acetate, molar ratio: 56.21 mol/100 mol
  % Butyrate, molar ratio: 11.79 mol/100 mol
  % Propionate, molar ratio: 24.39 mol/100 mol
  A/P rate (acetate/propionate): 2.31
  VFA concentration: 53.75 mmol/L
[3]
  % Acetate, molar ratio, average (μ): 58.15 mol/100 mol
  % Butyrate, molar ratio, average (μ): 10.90 ^b mol/100 mol
  % Propionate, molar ratio, average (M): 23.73 ^a mol/100 mol
  VFA concentration, average (μ): 35.76 mmol/L
[3]; listed as neoeritrocin
  % Propionate, molar ratio, average (M): 23.7 mol/100 mol
[4]; 0 h (initial constant value)
  N-NH3 concentration: 149.99 mg/L
[4]; 12 h
  N-NH3 concentration: 186.19 mg/L
[4]
  N-NH3 concentration, average (M): 227.84 mg/L
[5]
  Lactate: 122.5 mg/L
[6]
  Bacteria DNA: 13.14 ^a μg/ml
[7]
  Relative Quantification 2^(ΔΔCt) S. bovis: 0.62
[8]
  Relative Quantification 2^(ΔΔCt) S. ruminantium: 0.79
[9]
  Relative Quantification 2^(ΔΔCt) M. elsdenii: 0.76 ^a
[10]
  N-NH3 concentration: 347.34 mg/L

— patent US10159265B2, “Feed composition for reducing ruminant methanogenesis” (priority 2012, dated 2018)
